The term IC50 denotes the concentration that gives 50% inhibition.

From US10239832B2, “N-(1-hydroxy-3-(pyrrolidinyl)propan-2-yl)pyrrolidine-3-carboxamide derivatives as glucosylceramide synthase inhibitors” (BIOMARIN PHARMACEUTICAL INC., priority 2013, dated 2019) come the findings set out here.

The target in the assay is T1, GCS (Canis lupus familiaris, UniProt A0A8I3MXG6).
T1 construct: endogenous in cells; host or cells: MDCK (Madin-Darby canine kidney) cells, whole-cell lysate
T1 sequence (A0A8I3MXG6 1-394): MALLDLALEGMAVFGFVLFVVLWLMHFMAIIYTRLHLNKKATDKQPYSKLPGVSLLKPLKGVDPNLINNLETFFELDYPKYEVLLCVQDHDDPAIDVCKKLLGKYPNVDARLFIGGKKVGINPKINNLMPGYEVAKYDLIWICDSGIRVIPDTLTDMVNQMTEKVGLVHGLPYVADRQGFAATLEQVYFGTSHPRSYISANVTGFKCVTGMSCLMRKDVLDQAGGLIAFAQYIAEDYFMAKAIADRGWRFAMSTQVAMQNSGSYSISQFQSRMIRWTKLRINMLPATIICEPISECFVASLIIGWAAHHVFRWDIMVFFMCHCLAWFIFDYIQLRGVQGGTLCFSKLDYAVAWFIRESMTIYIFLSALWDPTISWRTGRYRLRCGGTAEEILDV
The assay can be described thus: GCS enzymatic assay (MDCK cell lysate, NBD-ceramide to glucosylceramide, LC/MS). It is filed as biochemical, canine. Conditions: Table 2, the table does not say which of the assays; for Data Range (% inhibition): class symbols D, E, F, NA (not active); for IC50: class symbols A, B, C, read-out: Data Range (IC50 values). The method, then:
This assay was modified based on the study by Larsen et al. (J. Lipid Res. 2011, 53, 282). Madin-Darby canine kidney (MDCK) cell lysate was prepared using M-PER Mammalian Protein Extraction Reagent (Thermal Scientific) in the presence of a protease inhibitor cocktail (Roche). Protein concentration was determined using BCA assay kit (Pierce). […] 0.1% DMSO was used as mock treatment or control. The reaction was terminated by adding 100 μL acetonitrile solution and subjected to LC/MS analysis.
The quantitative analysis of NBD-Ceramide and glucosylceramide was performed on a Shimadzu ultra-fast liquid chromatography (Shimadzu, Japan) coupled with API 4000 triple quadrupole mass spectrometer (Applied Biosystems, Concord, Ontario, Canada). Sample separation was conducted on a Waters Xbridge™ BEH130 C18, 100 mm×4.6 mm i.d, 3.5 μm (Milford, Mass., USA). The mobile phase consisted of water and acetonitrile supplemented with 0.1% formic acid (v/v). The flow rate was 1.0 mL/min. The initial mobile phase was 20% acetonitrile and was ramped in a linear fashion to 50% acetonitrile in 0.4 min. From 0.4 to 1.5 min, the gradient was ramped to 98% acetonitrile, and then was held at […] until 8.0 min. Acetonitrile was reset to 20% in 1.5 min, and maintained until 10.0 min. The total run time was 10.0 min. The MS/MS detection was performed in ESI positive mode. The mass transition of NBD-Ceramide was m/z 576.36→558.40 under the collision energy of 15 V, and the mass transition of glucosylceramide was m/z 738.35→558.40 under 21V collision energy. The cell lysate was diluted with equal volume of acetonitrile. Aliquots of 50 μL diluted samples were added to 1.5 mL tubes, and 100 μL of acetonitrile containing internal standard (100 ng/mL tolbutamide) were added for protein precipitation. The mixture were vortexed and then centrifuged at 13000 rpm for 10 min. 70 μL of supernatant were mixed with 140 μL of H2O and the final solution were injected for LC/MS/MS analysis and IC50's and/or percent inhibitions calculated.

The structures appear in SMILES notation.

With `O=C(N[C@H](CN1CCCC1)[C@H](O)c1ccc2c(c1)OCCO2)[C@@H]1CCN(CC2(O)CCOCC2)C1` [Compound 5, (R)-N-((1R,2R)-1-(2,3-dihydrobenzo[b][1,4]dioxin-6-yl)-1-hydroxy-3-(pyrrolidin-1-yl)propan-2-yl)-1-((4-hydroxytetrahydro-2H-pyran-4-yl)methyl)pyrrolidine-3-carboxamide], the “Data Range (% inhibition)” value is recorded as “F (1-49% (or less than 50%))”.
For the compound `CC(C)(C)c1ccc(N2CC[C@@H](C(=O)N[C@H](CN3CCCC3)[C@H](O)c3ccc(OC4CC4)c(Cl)c3)C2)cc1` [Compound 139, (R)-1-(4-(tert-butyl)phenyl)-N-((1R,2R)-1-(3-chloro-4-cyclopropoxyphenyl)-1-hydroxy-3-(pyrrolidin-1-yl)propan-2-yl)pyrrolidine-3-carboxamide], the 50% inhibitory concentration (IC50) is 30 to 100 nM.
On to `O=C(N[C@H](CN1CCCC1)[C@H](O)c1ccc(OC2CCOCC2)c(Cl)c1)[C@H]1CCN(c2ccc(F)cc2)C1` [Compound 32A, (S)-N-((1R,2R)-1-(3-chloro-4-((tetrahydro-2H-pyran-4-yl)oxy)phenyl)-1-hydroxy-3-(pyrrolidin-1-yl)propan-2-yl)-1-(4-fluorophenyl)pyrrolidine-3-carboxamide], for which the “Data Range (% inhibition)” value is “F (1-49% (or less than 50%))”.
With `O=C(N[C@H](CN1CCC1)[C@H](O)c1ccc(OC2CC2)c(Cl)c1)[C@@H]1CCN(c2ccc(Cl)cc2)C1` [Compound 73, (R)-N-((1R,2R)-3-(azetidin-1-yl)-1-(3-chloro-4-cyclopropoxyphenyl)-1-hydroxypropan-2-yl)-1-(4-chlorophenyl)pyrrolidine-3-carboxamide], the IC50 was in the range of 1 to 30 nM.
In the case of `O=C(N[C@H](CN1CCCC1)[C@H](O)c1ccc2c(c1)OCCO2)[C@H]1CCN(c2nccs2)C1` [Compound 17D, (S)-N-((1R,2R)-1-(2,3-dihydrobenzo[b][1,4]dioxin-6-yl)-1-hydroxy-3-(pyrrolidin-1-yl)propan-2-yl)-1-(thiazol-2-yl)pyrrolidine-3-carboxamide], the “Data Range (% inhibition)” value was “NA (not active—a negative value was generated for % inhibition)”.
As to `O=C(N[C@H](CN1CCCC1)[C@H](O)c1cc(F)c2c(c1)OCCO2)[C@@H]1CCN(c2ccc3cc(Cl)sc3c2)C1` [Compound 111, (R)-1-(2-chlorobenzo[b]thiophen-6-yl)-N-((1R,2R)-1-(8-fluoro-2,3-dihydrobenzo[b][1,4]dioxin-6-yl)-1-hydroxy-3-(pyrrolidin-1-yl)propan-2-yl)pyrrolidine-3-carboxamide], the IC50 fell in the range of 1 to 30 nM.
On to `O=C(N[C@H](CN1CCC1)[C@H](O)c1cc(F)c2c(c1)OCCO2)[C@@H]1CCN(c2ccc3ccccc3c2)C1` [Compound 85, (R)-N-((1R,2R)-3-(azetidin-1-yl)-1-(8-fluoro-2,3-dihydrobenzo[b][1,4]dioxin-6-yl)-1-hydroxypropan-2-yl)-1-(naphthalen-2-yl)pyrrolidine-3-carboxamide], for which the IC50 lay within 1 to 30 nM.
Regarding `Cn1ncc2ccc(N3CC[C@@H](C(=O)N[C@H](CN4CCC4)[C@H](O)c4cc(F)c5c(c4)OCCO5)C3)cc21` [Compound 134, (R)-N-((1R,2R)-3-(azetidin-1-yl)-1-(8-fluoro-2,3-dihydrobenzo[b][1,4]dioxin-6-yl)-1-hydroxypropan-2-yl)-1-(1-methyl-1H-indazol-6-yl)pyrrolidine-3-carboxamide], the IC50 fell in the range of 1 to 30 nM.
With `O=C(N[C@H](CN1CCCC1)[C@H](O)c1ccc(OC2CCOCC2)c(Cl)c1)[C@@H]1CCN(c2ccc3cc(F)ccc3c2)C1` [Compound 50, (R)-N-((1R,2R)-1-(3-chloro-4-((tetrahydro-2H-pyran-4-yl)oxy)phenyl)-1-hydroxy-3-(pyrrolidin-1-yl)propan-2-yl)-1-(6-fluoronaphthalen-2-yl)pyrrolidine-3-carboxamide], the IC50 was 1 to 30 nM.
As to `O=C(N[C@H](CN1CCCC1)[C@H](O)c1ccc(OC2COC2)c(Cl)c1)[C@@H]1CCN(c2ccc(Cl)cc2)C1` [Compound 59, (R)-N-((1R,2R)-1-(3-chloro-4-(oxetan-3-yloxy)phenyl)-1-hydroxy-3-(pyrrolidin-1-yl)propan-2-yl)-1-(4-chlorophenyl)pyrrolidine-3-carboxamide], the “Data Range (% inhibition)” value is “F (1-49% (or less than 50%))”.
In the case of `O=C(N[C@H](CN1CCCC1)[C@H](O)c1ccc2c(c1)OCCO2)[C@H]1CCN(c2ccccn2)C1` [Compound 22D, (S)-N-((1R,2R)-1-(2,3-dihydrobenzo[b][1,4]dioxin-6-yl)-1-hydroxy-3-(pyrrolidin-l-yl)propan-2-yl)-1-(pyridin-2-yl)pyrrolidine-3-carboxamide], the “Data Range (% inhibition)” value is on record as “F (1-49% (or less than 50%))”.
On the same count and under the same terms, to `CN1CCc2ccc(N3CC[C@H](C(=O)N[C@H](CN4CCCC4)[C@H](O)c4ccc5c(c4)OCCO5)C3)cc2C1` [Compound 63D, (S)-N-((1R,2R)-1-(2,3-dihydrobenzo[b][1,4]dioxin-6-yl)-1-hydroxy-3-(pyrrolidin-1-yl)propan-2-yl)-1-(2-methyl-1,2,3,4-tetrahydroisoquinolin-7-yl)pyrrolidine-3-carboxamide] belongs “NA (not active—a negative value was generated for % inhibition)”.
`O=C(N[C@H](CN1CCCCC1)[C@H](O)c1ccc(OC2CC2)c(Cl)c1)[C@@H]1CCN(c2ccc(Cl)cc2)C1` [Compound 66, (R)-N-((1R,2R)-1-(3-chloro-4-cyclopropoxyphenyl)-1-hydroxy-3-(piperidin-1-yl)propan-2-yl)-1-(4-chlorophenyl)pyrrolidine-3-carboxamide]: the “Data Range (% inhibition)” value was “F (1-49% (or less than 50%))”.
`O=C(N[C@H](CN1CCC1)[C@H](O)c1cc(F)c2c(c1)OCCO2)[C@@H]1CCN(c2ccc3cc(Cl)sc3c2)C1` [Compound 108, (R)-N-((1R,2R)-3-(azetidin-1-yl)-1-(8-fluoro-2,3-dihydrobenzo[b][1,4]dioxin-6-yl)-1-hydroxypropan-2-yl)-1-(2-chlorobenzo[b]thiophen-6-yl)pyrrolidine-3-carboxamide]: the IC50 lay in the range of 1 to 30 nM.
Take `O=C(N[C@H](CN1CCCCC1)[C@H](O)c1ccc2c(c1)OCCO2)C1CCN(c2ccc(Cl)cc2)C1` (stereo partly drawn) [Compound 43D, 1-(4-chlorophenyl)-N-((1R,2R)-1-(2,3-dihydrobenzo[b][1,4]dioxin-6-yl)-1-hydroxy-3-(piperidin-1-yl)propan-2-yl)pyrrolidine-3-carboxamide]: the “Data Range (% inhibition)” value was “F (1-49% (or less than 50%))”.
On to `O=C(N[C@H](CN1CCCC1)[C@H](O)c1ccc(OC2CC2)c(Cl)c1)[C@H]1CCN(c2ccc(Cl)cn2)C1` [Compound 57A, (S)-N-((1R,2R)-1-(3-chloro-4-cyclopropoxyphenyl)-1-hydroxy-3-(pyrrolidin-1-yl)propan-2-yl)-1-(5-chloropyridin-2-yl)pyrrolidine-3-carboxamide], for which the IC50 was in the range of 1 to 30 nM.
On the same count and under the same terms, to `O=C(N[C@H](CN1CCCC1)[C@H](O)c1ccc2c(c1)OCCO2)[C@@H]1CCN(c2cccc(Oc3ccc(F)cc3)n2)C1` [Compound 119, (R)-N-((1R,2R)-1-(2,3-dihydrobenzo[b][1,4]dioxin-6-yl)-1-hydroxy-3-(pyrrolidin-1-yl)propan-2-yl)-1-(6-(4-fluorophenoxy)pyridin-2-yl)pyrrolidine-3-carboxamide] belongs 1 to 30 nM.
On to `Cn1ncc2cc(N3CC[C@@H](C(=O)N[C@H](CN4CCCC4)[C@H](O)c4cc(F)c5c(c4)OCCO5)C3)ccc21` [Compound 125, (R)-N-((1R,2R)-1-(8-fluoro-2,3-dihydrobenzo[b][1,4]dioxin-6-yl)-1-hydroxy-3-(pyrrolidin-1-yl)propan-2-yl)-1-(1-methyl-1H-indazol-5-yl)pyrrolidine-3-carboxamide], for which the “Data Range (% inhibition)” value was “E (50-74% (or less than 75%))”.
The same measure, in the same setting: to `O=C(N[C@H](CN1CCCC1)[C@H](O)c1ccc2c(c1)OCCO2)C1CCN(c2ccc(Cl)c(OC3CC3)c2)C1` (stereo partly shown) [Compound 19] belongs “E (50-74% (or less than 75%))”.
